Assay results published in patent publication US7776826B2, “Method for fostering bone formation and preservation” (Unigene Laboratories, Inc., priority 2004, dated 2010).
Where no end group is shown, it is not given here.

Assays:
Format in all cases: in vivo, rat
[1] = tested on: osteoporotic female Sprague-Dawley rats; test: Lumbar vertebral bone mineral density and bone formation rate in ovariectomized osteoporotic rats, without mechanical induction; conditions: OVX rats, 4 weeks subcutaneous treatment, no mechanical induction
Procedure: FIG. 15 is a bar graph comparing the Lumbar Vertebral Bone Mineral Density obtained in osteoporotic female Sprague-Dawley rats wherein the osteoporosis was induced via an ovariectomy. The rats were treated with (1) PTH[1-31]-NH2; (2) PTH[1-34]-NH2; and PTH[1-34]-OH; and
FIG. 16 is a bar graph comparing the Lumbar Vertebral Bone Formation Rate obtained in osteoporotic female Sprague-Dawley rats wherein the osteoporosis was induced via an ovariectomy. The rats were treated with (1) PTH[1-31]-NH2; (2) PTH[1-34]-NH2; and PTH[1-34]-OH.
A series of experiments was performed comparing (1) lumbar vertebral bone mineral density, and (2) lumbar vertebral bone formation rate achieved with PTH[1-31]-NH2 and PTH[1-34]-OH compared to the preferred PTH[1-34]-NH2 analog discussed above in the absence of the mechanical induction step of the invention. The study involved a four-week treatment of female Sprague-Dawley rats at 10 months of age, and 6 months post-ovariectomy (“OVX”), which induces osteoporosis, with one of the three above-noted parathyroid hormone truncates. The rats were randomized into the following groups: sham OVX, OVX+ vehicle, OVX+PTH [1-31]-NH2 or PTH [1-34]-NH2 (obtained from Unigene Laboratories, Inc.) at 2.5, 10 or 40 μg/kg/day subcutaneous, or PTH[1-34]-OH (obtained from Bachem) at 10 μg/kg/day subcutaneous. After 4 weeks of treatment, the right femur of each animal was analyzed by DEXA and bone histomorphometry. FIG. 15 is a bar graph providing a comparison of the lumbar vertebral bone mineral density achieved with PTH[1-31]-NH2, PTH[1-34]-NH2 and PTH[1-34]-OH. FIG. 16 is a bar graph comparing the lumbar vertebral formation rates achieved with these same truncates. […] Because of the similarity of anabolic action among the above-discussed parathyroid hormones, it is therefore reasonable to expect that all known PTH analogs will advantageously function in the desired manner in the method of the present invention.

[2] = tested on: Male Sprague-Dawley rats; test: Serum osteocalcin concentration at day 21, Groups K-R; conditions: for osteocalcin level, in words: bmx + agent daily for 21 days; for Osteocalcin mean: bmx rats, day 21, agent daily for 21 days, Groups K-R
Excerpt: FIG. 12 provides a measurement of the serum osteocalcin concentration (in ng/ml) in the blood of the rats in Groups K-R when the rats were sacrificed 21 days after commencement of treatment. The meaning of the abbreviated terms is the same as in FIGS. 10 and 11. […] [*=p value<0.05, while **=p value<0.01];
FIG. 12 is a bar graph which sets forth the osteocalcin levels determined, at the time of sacrifice, in the blood serum of the rats which were the subject of the analyses illustrated in FIGS. 10 and 11. As indicated above, it is well known that osteocalcin is a biochemical marker indicative of new bone growth.
The table additionally includes the standard deviations for the values obtained for each analysis, which standard deviations are also included in FIG. 12.

[3] = tested on: Male Sprague-Dawley rats; test: High resolution radiograms of left and right femurs, Groups K-R; conditions: left femur with bmx, agent daily for 21 days
Excerpt: (§1) FIG. 10 (a-b) presents high resolution radiograms of the left and right femurs, respectively, from an additional series of experiments on additional groups of male Sprague-Dawley rats (6 rats per group) aged 9 weeks which were sacrificed and tested after 21 days (3 weeks). The various groups were subjected to the following treatment modalities: Group K—control day 0; Group L—control day 21; Group M—bone marrow ablation (bmx) day 0; Group N—sham day 21; Group O— bmx+phosphate buffer saline (PBS) daily for 21 days; Group P—bmx+PTH[1-34]-NH2 daily for 21 days; Group Q—bmx+ parathyroid hormone related peptide (PTHRP) daily for 21 days; and Group R—bmx+rat α-calcitonin gene related peptide (CGRP) daily for 21 days;
FIG. 10 (a-b) presents a set of high resolution radiograms of the entire left and right femurs of additional (to those described above) groups of rats, injected daily for a designated term with one or more of the following agents: phosphate buffer saline (PBS); parathyroid hormone (PTH[1-34]-NH2); parathyroid hormone related peptide (PTHrP); and calcitonin gene related peptide (CGRP). The rats chosen for test subjects were subjected to the following treatment modalities (as indicated in the lower left corner of each of the radiograms): control day 0; control day 21; bone marrow ablation (bmx) day 0; sham day 21; bmx followed by injection of PBS buffer daily for 21 days; bmx followed by injection of PTH daily for 21 days; bmx followed by injection of PTHrP daily for 21 days; and bmx followed by injection of CGRP daily for 21 days.
As shown by FIG. 10(a), the best results, i.e., the greatest bone density, was obtained in the left femur wherein the effect of the bone marrow ablation overlapped with that attributable to the administration of the various anabolic agents. As in the case of FIG. 3, the lighter, i.e, more radio-opaque, areas indicate the locations of the greatest additional bone growth.

[4] = tested on: Male Sprague-Dawley rats; test: MicroCT analysis of femoral shafts, Groups K-R; conditions: left femoral shaft with bmx, agent for 21 days
Excerpt: FIG. 13(a-b) illustrate the results of Micro Computerized Tomography (MicroCT) analysis of the left (ablated) and right (non-ablated) femoral shafts of the rats of Groups K-R. The abbreviations are the same as those used in FIGS. 10-12;
FIG. 13 (a-b) provides a comparison between Micro Computerized Tomography (MicroCT) analyses of bone samples taken from the left femoral shaft (FIG. 13a) and the right femoral shaft (FIG. 13b) of rats treated in the manner indicated in FIGS. 10-12. As in the other cases discussed above, the most significant amount of new bone growth is found in the shaft of the left femur, since this shaft was subjected to the bmx treatment. […] In contrast, the right femoral shaft sections show very little or no increase in bone growth at all.

[5] = tested on: Male Sprague-Dawley rats; test: pQCT analysis of left and right femoral shafts at day 21, Groups K-R; conditions: for Left femoral shaft Total density mean / Left femoral shaft Trabecular density mean: ablated femur; for Left femoral shaft Total density mean / Left femoral shaft Trabecular density mean / Right femoral shaft Total density mean / Right femoral shaft Trabecular density mean: day 21, agent daily for 21 days, Groups K-R; for trabecular bone density of left femoral shaft, in words: bmx, day 21; for Right femoral shaft Total density mean / Right femoral shaft Trabecular density mean: non-ablated femur
Excerpt: as §1
FIG. 11 (a-d) are graphical representations of the results of Peripheral Quantitative Computerized Tomography (PQCT) analyses of, respectively, the left (ablated) and right (non-ablated) femoral shafts of the rats from Groups K-R (see description of FIG. 10). FIGS. 11(a) and 11(b) illustrate the trabecular bone density observed in, respectively the left and right femoral shafts at day 21; whereas, FIGS. 11(c) and 11(d) illustrate the total bone density of, respectively, the left and right femoral shafts at the same interval. The meanings of the abbreviations used in FIGS. 11(a-d) are identical to those described above with regard to FIG. 10. […] [+=p value<0.01 vs. sham; *=p value<0.01 vs. bmx+PTH; **=p value<0.01 vs. bmx+PTH; and #=p value<0.05 vs. PBS];
An additional series of experiments was thereafter carried out with additional groups of rats (K-R) in order to (1) measure the effect of additional bone anabolic agents, i.e., other than parathyroid hormone (PTH[1-34]-NH2) and calcitonin, as well as to compare the effect(s) achieved with such parathyroid hormone with those obtained with the use of alternate anabolic agents, including parathyroid hormone related peptide (PTHrP) and calcitonin gene related peptide (CGRP). As in the case of the analyses discussed above with regard to FIGS. 3-9, in the animals tested only the left femur underwent the bone marrow ablation (bmx) procedure, i.e., there was no ablation of the right femur. Thus, as noted above, any views of the right femur in the figures described below indicating bone marrow ablation (bmx) as a treatment modality should be taken to mean that such treatment was applied to the corresponding left femur. Further, as was additionally the case above, the samples described below with regard to FIGS. 10-13 were taken from the femur shafts, rather than the corresponding distal epiphysis as in the case of FIGS. 1 and 2. The figures discussed below depict the results of end-point studies wherein the measurements were taken only at the 21 day end-point.
FIG. 11 (a-d) graphically illustrates, by means of a bar graph, the improvements in trabecular bone density and, to some extent, total bone density, in the left femoral shaft of rats subjected to the treatment modalities described above with regard to FIG. 10 (a-b); that is, control day 0; bmx day 0; control day 21; sham day 21; bmx+PBS on day 21; bmx+PTH on day 21; bmx+PTHrP on day 21; and bmx+CGRP on day 21. Again, this is attributable that (only) the left femur was subjected to the bmx treatment, and thus was the only femur wherein the effects of such bmx treatment overlapped with that of the systemic treatment with the bone anabolic agent. […] In contrast to the values obtained for the left femur, no significant amount of bone was formed in the right femur, notwithstanding whether it is trabecular bone density or total bone density which is being measured. This lack of new bone is, furthermore, attributable to the fact that the right femur had not been subjected to the bone marrow ablation (bmx) treatment.

| Compound | bone anabolic activity (lumbar vertebral bone mineral density and bone formation rate) [1] | osteocalcin level, in words [2] | Osteocalcin mean [2] | bone density on radiograms, in words [3] | new bone growth in MicroCT, in words [4] | Left femoral shaft Total density mean [5] | Left femoral shaft Trabecular density mean [5] | trabecular bone density of left femoral shaft, in words [5] | Right femoral shaft Total density mean [5] | Right femoral shaft Trabecular density mean [5] |
| --- | --- | --- | --- | --- | --- | --- | --- | --- | --- | --- |
| CC[C@H](C)[C@H](NC(=O)[C@H](CCC(=O)O)NC(=O)[C@H](CO)NC(=O)[C@@H](NC(=O)[C@@H](N)CO)C(C)C)C(=O)N[C@@H](CCC(N)=O)C(=O)N[C@@H](CC(C)C)C(=O)N[C@@H](CCSC)C(=O)N[C@@H](Cc1cnc[nH]1)C(=O)N[C@@H](CC(N)=O)C(=O)N[C@@H](CC(C)C)C(=O)NCC(=O)N[C@@H](CCCCN)C(=O)N[C@@H](Cc1cnc[nH]1)C(=O)N[C@@H](CC(C)C)C(=O)N[C@@H](CC(N)=O)C(=O)N[C@@H](CO)C(=O)N[C@@H](CCSC)C(=O)N[C@@H](CCC(=O)O)C(=O)N[C@@H](CCCN=C(N)N)C(=O)N[C@H](C(=O)N[C@@H](CCC(=O)O)C(=O)N[C@@H](Cc1c[nH]c2ccccc12)C(=O)N[C@@H](CC(C)C)C(=O)N[C@@H](CCCN=C(N)N)C(=O)N[C@@H](CCCCN)C(=O)N[C@@H](CCCCN)C(=O)N[C@@H](CC(C)C)C(=O)N[C@@H](CCC(N)=O)C(=O)N[C@@H](CC(=O)O)C(=O)N[C@H](C(=O)N[C@@H](Cc1cnc[nH]1)C(=O)N[C@@H](CC(N)=O)C(=O)N[C@@H](Cc1ccccc1)C(=O)O)C(C)C)C(C)C [PTH[1-34]-OH, reference compound] | substantially equivalent |  |  |  |  |  |  |  |  |  |
| PTH[1-31]-NH2 (SVSEIQLMHNLGKHLNSMERVEWLRKKLQDV-NH2; UniProt P01270 32-62, looked up, fragment) [amidated parathyroid hormone truncate obtained from Unigene Laboratories] | substantially equivalent |  |  |  |  |  |  |  |  |  |
| parathyroid hormone related peptide [PTHRP] |  | Significant new bone growth | 124.2 ng/mL | satisfactory results | significant degree of improvement | 1017.9 mg/mL | 403.1 mg/mL | significantly improved | 858.2 mg/mL | 122.4 mg/mL |
| rat α-calcitonin gene related peptide [CGRP] |  | no increase | 97 ng/mL | satisfactory results | new bone growth, although lesser in scope | 963.5 mg/mL | 283.5 mg/mL | significantly improved | 831.1 mg/mL | 115.5 mg/mL |
